Like-named read-outs stand apart in the source and are kept apart here.
Columns and labels:
[1] = system: glycerol-induced renal failure model; assay: renal-protecting effect (glycerol-induced renal failure model); format: in vivo; settings: male Wistar rats; for suppression of increases of the serum creatinine and of urine-nitrogen: 0.01 - 10 mg/kg i.p., 24 hours after 50% glycerol s.c. (p < 0.05); for pathological examination of removed kidneys: state of kidneys: i.p., left kidney removed 24 hours after 50% glycerol s.c.
Procedure: A renal failure is a state wherein the renal function is lowered and the homeostasis of a body fluid can be no more maintained. It is known that an acute renal failure characteristic of uriniferous tubule disorder is caused by subcutaneous or intramuscular injection of glycerol to rats [Can. J. Physiol.
Male Wistar rats were kept deprived or water for 18 hours, and served for the test. A test compound was intraperitoneally administered to the rats (dosage: 1 mℓ/kg) and the rats were anesthetized with ether and 50% glycerol was subcutaneously administered (dosage: 0.8mℓ/100g) to the rats, pinching the dorsal skin. Twenty four hours after the administration of glycerol, the rats were anesthetized with ether and 5 mℓ of blood were collected from the abdominal aorta. The collected blood was allowed to stand for 30 minutes or longer and then centrifuged at 3,000 rpm for 10 minutes, and the amounts of the serum creatinine and urine-nitrogen (UN) contained in the serum were determined by auto analyzer (Olympus AU510) or measured by a creatinine test Wako (Jaffé method) and UN Test Wako (diacetylmonooxime direct method). Both are manufactured by Wako Pure Chemicals Co.
On the other hand, the left kidneys of the blood-sampled rats were removed and placed in formalin-filled vial bottles, and used as samples for the pathological examination.

[2] = system: zig-zag strips of the trachea; assay: effects on passive Schultz-Dale reaction (antigen-induced contraction of sensitized trachea strips); parameters: species or system guinea pigs; settings: Cavia porcellus, read-out: Passive S-D Reaction IC₅₀
Procedure: After 24 hours, the guinea pigs were stunned and exsanguinated, and then trachea were removed. The zig-zag strips of the trachea were prepared by the method of Emmerson, et al. [J. Pharm. […] The strips were suspended in Krebs-Henseleit solution at 37°C […] Antigen (EWA) was then introduced in the solution (final concentration; 1μg/ml), and the contraction was measured by […] After the contraction reached stable plateau, the compounds were cumulatively added in order to get concentration-relaxation curves. […]

[3] = system: death induced by Platelet-Activating Factor (PAF); assay: effect of inhibiting death induced by Platelet-Activating Factor (PAF); format: in vivo; settings: Mus musculus; oral, dd strain mice, 40 µg/kg PAF i.v. 1 hour after administration; highest dose 100 mg/kg; read-out: MED (mg/kg) for Inhibiting Death Induced by PAF
Procedure: A test compound (100 mg/kg) was orally administered to dd strain mice (male animals, 28 to 32g) and 40 µg/kg of PAF (manufactured by Avanti Polar Lipids Co.) was administered via tail veins 1 hour after the administration according to the method of Carlson et al. [Agents and Actions, 21, 379 (1987)]. The mortality rates of compound-treated groups were compared with those of matched control groups, assessed during the same experimental session, by the Fisher's exact probability test. The cases wherein the level of significance (p value) is 0.05 or less are considered to be effective with respect to the inhibition. The above procedure was repeated, using the test compound in a decreasingly small quantity so as to find out the Minimum Effective Dosage (MED) wherein […] be observed between the test and control groups.

Wistar rats = assay: diuretic effect; format: in vivo; settings: 25 mg/kg oral, urine collected for 6 hours; for Increase in K⁺ excretion (%) / Increase in Na⁺excretion (%) / Increase in Urine (%): relative to control; for Na⁺/K⁺: relative value of control (control 1.00)
Procedure: Wistar rats (male: 150 - 300 g) were starved for 18 hours prior to the administration of the test compounds. […] Urine was collected for 6 hours after the administration. Urine volume was measured and the electrolytes (Na+ and K+) in the urine were determined with a flame photome[…], Hitachi Ltd., Japan). All parameters are expressed as relative values of control.

male dd-strain mice = assay: acute toxicity test; format: in vivo; settings: mouse, in vivo, 10080 min
Procedure: […]. The Minimum lethal dose (MLD) of the compounds was determined by observing whether or not the mice were alive after 7 days of the administration.

Adenosine A₁ Receptor = target: T1, Adenosine A₁ Receptor (Cavia porcellus, UniProt P47745); assay: Adenosine A1 receptor binding (3H-CHA binding); parameters: species or system guinea pig; settings: guinea pig cerebrum; for inhibition at 100 µM: concentration of tested compound 10⁻⁴ M; for inhibition at 100 µM / inhibition at 10 µM: ³H-CHA 1.1 nM; for inhibition at 10 µM: concentration of tested compound 10⁻⁵ M
T1 construct: from tissue; host or cells: guinea pig cerebrum membrane preparation
T1 sequence (P47745 1-326): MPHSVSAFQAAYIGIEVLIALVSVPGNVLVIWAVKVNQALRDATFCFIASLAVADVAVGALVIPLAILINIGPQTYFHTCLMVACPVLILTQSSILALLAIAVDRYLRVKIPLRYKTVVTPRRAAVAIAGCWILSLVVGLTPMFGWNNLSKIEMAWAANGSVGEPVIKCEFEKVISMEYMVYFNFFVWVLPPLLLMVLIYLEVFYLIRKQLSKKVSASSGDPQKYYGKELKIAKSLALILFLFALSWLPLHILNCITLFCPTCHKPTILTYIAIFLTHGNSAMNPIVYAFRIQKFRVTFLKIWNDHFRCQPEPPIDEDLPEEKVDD
Procedure: Cerebrum of a guinea pig was suspended into ice cooled 50 mM tris hydroxymethyl aminomethane hydrochloride (Tris HCl) buffer (pH = 7.7), by using Polytron homogenizer (manufactured by Kinematica Co.). The suspension was centrifuged (50,000 x g, 10 minutes), and the precipitate was resuspended by adding the same volume of 50 mM Tris HCl buffer. The suspension was centrifuged under the same conditions, and the precipitate obtained was suspended once again by adding 10 volumes of 50 mM Tris HCl. The tissue suspension was incubated at 37°C for 30 minutes in the presence of 0.02 units/mg tissue of adenosine deaminase (manufactured by Sigma Co.). The resulting tissue suspension was recentrifuged (50,000 x g, 10 minutes), and 50 mM Tris HCl was added to the precipitate to adjust the concentration of tissue to 10 mg (wet weight)/mℓ.
The mixture was incubated at 25°C for 90 minutes, and the resulting reaction was stopped by rapid vacuum filtration through a glass fiber filter (GF/C manufactured by Whatman Co.) followed by immediately washing three times with 5 mℓ each of ice cold 50 mM Tris HCl buffer. […] Its radioactivity was then determined by a scintillation counter (manufactured by Packard Instrument Co.).
The inhibition rate of the test compounds against the binding of A₁ […] (³H-CHA binding) was calculated from the following equation: [formula]
• 1. […] The inhibition constant (Ki value) shown in the table was calculated from Cheng-Prusoff's equation.

A₂ receptor = target: T2, A₂ receptor (Rattus norvegicus, UniProt P30543); assay: Adenosine A2 receptor binding (3H-NECA binding); settings: for inhibition at 10 µM / inhibition at 100 µM: read-out: A₂ Receptor Inhibition (%)
T2 construct: A precipitate was prepared from rat corpus striatum; from tissue; host or cells: rat corpus striatum membrane preparation
Procedure: A precipitate was prepared from rat corpus striatum in a similar manner as in 1) above. The precipitate was suspended by adding a 50 mM Tris HCl buffer containing 10 mM magnesium chloride and 0.02 unit/mg (tissue) of adenosine deaminase (manufactured by Sigma Co.) to adjust the concentration of tissue to 5 mg (wet weight)/mℓ.
The mixture was incubated at 25°C within 120 minutes. The resulting mixture was treated in the same manner as in 1) above to determine its radioactivity.
The inhibition rate of the test compound against the binding of A₂ receptor (³H-NECA binding) was calculated from the following equation: [formula]

[4] = concentration to produce 50% relaxation of EWA (1µg/mℓ)-contracted trachea strips of passively sensitized guinea pigs

T2 sequence (P30543 whole entry): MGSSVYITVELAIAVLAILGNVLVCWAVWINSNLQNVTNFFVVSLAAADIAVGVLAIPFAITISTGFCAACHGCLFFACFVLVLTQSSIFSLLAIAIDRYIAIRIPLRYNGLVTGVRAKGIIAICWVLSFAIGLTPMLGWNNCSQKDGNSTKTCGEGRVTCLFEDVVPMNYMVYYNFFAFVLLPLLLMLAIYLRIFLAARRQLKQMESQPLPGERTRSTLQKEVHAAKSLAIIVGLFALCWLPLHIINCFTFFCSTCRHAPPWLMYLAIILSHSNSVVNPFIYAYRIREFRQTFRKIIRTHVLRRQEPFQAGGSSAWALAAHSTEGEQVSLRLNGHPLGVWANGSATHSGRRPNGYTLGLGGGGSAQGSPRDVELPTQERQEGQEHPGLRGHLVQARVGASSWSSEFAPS

SMILES	suppression of increases of the serum creatinine and of urine-nitrogen [1]	pathological examination of removed kidneys: state of kidneys [1]	IC50 [2, 4] [nM]	minimal effective dose [3] [mg/kg]	Increase in K⁺ excretion (%) (Wistar rats)	Increase in Na⁺excretion (%) (Wistar rats)	Increase in Urine (%) (Wistar rats)	Na⁺/K⁺ (Wistar rats)	Minimum lethal dose (MLD) (male dd-strain mice)	Ki (Adenosine A₁ Receptor; calculated from Cheng-Prusoff's equation, ³H-CHA) [nM]	inhibition at 100 µM (Adenosine A₁ Receptor) [%]	inhibition at 10 µM (Adenosine A₁ Receptor) [%]	inhibition at 10 µM (A₂ receptor) [%]	inhibition at 100 µM (A₂ receptor) [%]	Ki (A₂ receptor; ³H-NECA with CPA, rat corpus striatum, read-out: A₂ Receptor Ki) [nM]	IC50 [2] [nM]
CCCn1c(=O)c2[nH]c(C(C)Cc3ccncc3)nc2n(CCC)c1=O (stereo not drawn) [Compound 7, 8-[1-methyl-2-(4-pyridyl)ethyl]-1,3-dipropylxanthine]	significantly suppressed	significantly improved	2700	> 100												
CCCn1c(=O)c2[nH]c(C(C)Cc3csc(C)n3)nc2n(CCC)c1=O (stereo not drawn) [Compound 8, 8-[1-Methyl-2-(2-methylthiazol-4-yl)ethyl]-1,3-dipropylxanthine]	significantly suppressed	significantly improved	880	100	22	138	82	1.95								
CCCn1c(=O)c2[nH]c(C34CC5CC(CC(C5)C3)C4)nc2n(CCC)c1=O [Compound 13, 8-(Adamantan-1-yl)-1,3-dipropylxanthine]	significantly suppressed	significantly improved			37	186	129	2.09	more than 300 mg/kg	7.8	100	100	63	71		
CCCn1c(=O)c2[nH]c(C34CC5CC(CC3C5)C4)nc2n(CCC)c1=O [Compound 14, 8-(Noradamantan-3-yl)-1,3-dipropylxanthine]	significantly suppressed	significantly improved			68	244	315	2.05	more than 300 mg/kg		101	101	63	77	380	
CCCn1c(=O)[nH]c(=O)c2[nH]c(C34CC5CC(CC3C5)C4)nc21 [Compound 25, 8-(Noradamantan-3-yl)-3-propylxanthine]	significantly suppressed	significantly improved	17300													
CCCn1c(=O)[nH]c(=S)c2[nH]c(C34CC5CC(CC3C5)C4)nc21 [Compound 26, 8-(Noradamantan-3-yl)-3-propyl-6-thioxanthine]			22700													
Cn1c(=O)c2[nH]cnc2n(C)c1=O [Theophylline, 1,3-dimethylxanthine, reference compound]				100												23000

Reference: patent EP0415456A2, “Xanthine compounds” (priority 1989, dated 1991)
